{"source": "patent US20220144902A1", "about": "“METHOD FOR INDUCING MUSCULAR CELLS USING CELLS IN SPOT URINE” (NATIONAL CENTER OF NEUROLOGY AND PSYCHIATRY, priority 2018, published 2022)", "key": {"[1]": {"system": "MYOD1-positive urine-derived cells", "test": "Promotion of myotube induction by low molecular compounds, myosin heavy chain immunocytochemistry", "format": "cell-based, human", "details": "compound added to differentiation medium with doxycycline; FIG. 3A 1 μM, FIG. 3B 10 μM", "protocol": "(§1) The MYOD1-positive urine-derived cells were plated onto a collagen-coated culture dish or plate and cultured in a differentiation medium supplemented with doxycycline (e.g., 1 μg/ml) (the medium containing high-glucose-containing DMEM with GlutaMAX-I (Thermo Fisher Scientific; 10569-010), 5% horse serum, ITS Liquid Media Supplement (Sigma; 13146), and 1 μg/ml doxycycline) to induce the myotubes. Whether or not muscular differentiation could be promoted with the addition of a low molecular compound in a compound library (Sigma; S990043-EPI1) to the differentiation medium was examined. The low molecular compound was added at a final concentration of 0.1, 1, or 10 μM. Myotube induction was evaluated by immunocytochemistry and Western blotting.\nFor immunocytochemistry, cultured cells were washed in PBS, fixed in 4% paraformaldehyde, and then incubated with the addition of 0.1% Triton-X at room temperature for 10 minutes. The anti-myosin heavy chain antibody (1:50, R&D, Minneapolis, U.S.A.; MAB4470) and the anti-dystrophin antibody (1:30, Novocastra, Newcastle, UK; NCL-DYS1) were used as primary antibodies, and Alexa Fluor 546 goat anti-mouse IgG (H+L) (1:300, Invitrogen; A11003) was used as a secondary antibody. Nuclear staining was performed with the use of Hoechst 33342. An image was obtained using a fluorescence microscope (BZ-9000 or BZ-X800, KEYENCE, Osaka, Japan) and analyzed using the BZ-X Analyzer (KEYENCE).\nAs a result, it was founded that a degree of muscular differentiation evaluated in terms of the myosin heavy chain protein expression level by immunocytochemistry was enhanced to a significant extent with the addition of the epigenetic regulatory compound(s) to the differentiation medium (FIGS. 3 and 4). […] Also, effects of histone methyltransferase inhibitors (GSK343, SGC707, furamidine dihydrochloride, UNC2327, E7438, and MI-2 (menin-MLL inhibitor)), histone demethylase inhibitors (IOX 1 and GSK-J1), histone deacetylase (HDAC) inhibitors (VORINOSTAT, LMK-235, CAY10603, and BRD73954), SIRT2 inhibitor (SirReal 2), and PARP inhibitor (EB47) were observed. In FIG. 3, a horizontal axis represents a type of a compound added, and a vertical axis represents an area of a myosin heavy chain-positive region determined by immunocytochemistry. […] Statistical analysis was performed by a Kruskal-Wallis test at a significance level of p<0.05. “*,” “**,” and “***” indicate p<0.05, p<0.01, and p<0.001, respectively."}, "[2]": {"system": "myotubes induced from urine-derived cells obtained from 4 healthy subjects", "test": "Promotion of myotube induction, Western blotting of myosin heavy chain and dystrophin", "format": "cell-based, human", "details": "in the presence of DZNep; urine-derived cells from 4 healthy subjects", "protocol": "as §1\nThe effects of DZNep on promoting myotube induction were also examined by Western blotting. […] The total protein concentration was measured using the BCA protein assay kit (Thermo Fisher Scientific; 23227), denaturation was performed using NuPAGE® LDS Sample Buffer (Thermo Fisher Scientific; NP0007), SDS-PAGE was performed on 3% to 8% NuPAGE® Novex Tris-Acetate Gel (Invitrogen; EA03785BOX), and the resultant was transferred onto a PVDF membrane (Millipore, Billerica, Mass., U.S.A.; IPVH304F0). […] After the antibody reaction, a band of interest was detected using the ECL Prime Western Blotting Detection Reagent (GE Healthcare, UK; RPN2232). […]"}}}
{"compound": "Cc1cc(C)nc(SCC(=O)Nc2ncc(Cc3cccc4ccccc34)s2)n1", "note": "[SirReal 2]", "values": [{"measurement": "degree of muscular differentiation evaluated in terms of the myosin heavy chain protein expression level by immunocytochemistry", "setting": "[1]", "value": "observed"}]}
{"compound": "Cc1cc(C)cc(C(=O)NOCCCCCC(=O)NO)c1", "note": "[LMK-235]", "values": [{"measurement": "degree of muscular differentiation evaluated in terms of the myosin heavy chain protein expression level by immunocytochemistry", "setting": "[1]", "value": "observed"}]}
{"compound": "CC(C)(C)OC(=O)Nc1ccc(-c2cc(C(=O)NCCCCCCC(=O)NO)no2)cc1", "note": "[CAY10603]", "values": [{"measurement": "degree of muscular differentiation evaluated in terms of the myosin heavy chain protein expression level by immunocytochemistry", "setting": "[1]", "value": "observed"}]}
{"compound": "CCCc1cc(C)[nH]c(=O)c1CNC(=O)c1cc(-c2ccnc(N3CCN(C)CC3)c2)cc2c1cnn2C(C)C", "note": "[GSK343]", "values": [{"measurement": "degree of muscular differentiation evaluated in terms of the myosin heavy chain protein expression level by immunocytochemistry", "setting": "[1]", "value": "observed"}]}
{"compound": "O=C(NO)c1cccc(C(=O)NCCc2ccccc2)c1", "note": "[BRD73954]", "values": [{"measurement": "degree of muscular differentiation evaluated in terms of the myosin heavy chain protein expression level by immunocytochemistry", "setting": "[1]", "value": "observed"}]}
{"compound": "O=C(O)c1ccc(O)c2ncccc12", "note": "[IOX 1]", "values": [{"measurement": "degree of muscular differentiation evaluated in terms of the myosin heavy chain protein expression level by immunocytochemistry", "setting": "[1]", "value": "observed"}]}
{"compound": "O=C(NCC(=O)N1CCCC1)Nc1ccc2cnccc2c1", "note": "[SGC707]", "values": [{"measurement": "degree of muscular differentiation evaluated in terms of the myosin heavy chain protein expression level by immunocytochemistry", "setting": "[1]", "value": "observed"}]}
{"compound": "O=C(CCCCCCC(=O)Nc1ccccc1)NO", "note": "[VORINOSTAT]", "values": [{"measurement": "degree of muscular differentiation evaluated in terms of the myosin heavy chain protein expression level by immunocytochemistry", "setting": "[1]", "value": "observed"}]}
{"compound": "CCN(c1cc(-c2ccc(CN3CCOCC3)cc2)cc(C(=O)NCc2c(C)cc(C)[nH]c2=O)c1C)C1CCOCC1", "note": "[E7438]", "values": [{"measurement": "degree of muscular differentiation evaluated in terms of the myosin heavy chain protein expression level by immunocytochemistry", "setting": "[1]", "value": "observed"}]}
{"compound": "O=C(O)CCNc1cc(N2CCc3ccccc3CC2)nc(-c2ccccn2)n1", "note": "[GSK-J1]", "values": [{"measurement": "degree of muscular differentiation evaluated in terms of the myosin heavy chain protein expression level by immunocytochemistry", "setting": "[1]", "value": "observed"}]}
{"compound": "UNC2327", "values": [{"measurement": "degree of muscular differentiation evaluated in terms of the myosin heavy chain protein expression level by immunocytochemistry", "setting": "[1]", "value": "observed"}]}
{"compound": "Cl.Nc1nccc2c1ncn2[C@@H]1C=C(CO)[C@@H](O)[C@H]1O", "note": "[DZNep, 3-deazaneplanocin A hydrochloride]", "values": [{"measurement": "dystrophin expression by Western blotting", "setting": "[2]", "value": "expressed at high levels"}, {"measurement": "myosin heavy chain expression by Western blotting", "setting": "[2]", "value": "expressed at high levels"}, {"measurement": "degree of muscular differentiation evaluated in terms of the myosin heavy chain protein expression level by immunocytochemistry", "setting": "[1]", "value": "high"}]}
{"compound": "Cl.Cl.Nc1ncnc2c1ncn2[C@@H]1O[C@H](C(=O)N2CCN(CC(=O)Nc3cccc4c3CNC4=O)CC2)[C@@H](O)[C@H]1O", "note": "[EB47]", "values": [{"measurement": "degree of muscular differentiation evaluated in terms of the myosin heavy chain protein expression level by immunocytochemistry", "setting": "[1]", "value": "observed"}]}
{"compound": "CCCc1cc2c(N3CCN(C4=NCC(C)(C)S4)CC3)ncnc2s1", "note": "[MI-2 (menin-MLL inhibitor)]", "values": [{"measurement": "degree of muscular differentiation evaluated in terms of the myosin heavy chain protein expression level by immunocytochemistry", "setting": "[1]", "value": "observed"}]}
